Tests used:
RXR = assay: apoA1 "A" site reporter co-transfection in HepG-2 cells with RXR; format: cell-based
From the text: (§1) This work focused on studying the transcriptional properties of the retinoid receptors RAR and RXR on a reporter molecule (e.g., luciferase) under control of a basal promoter containing the RXR response element from the apoA1 gene ("A" site). Plasmid constructs coding for the various receptors were transfected into a human hepatocyte cell line (HepG-2) along with the reporter plasmid. […] Widom et al., Mol. Cell. […] After transfection, treatment, harvest, and assay, the data obtained was normalized to transfected beta-galactosidase activity so as to control for transfection efficiency.

Rhino mice = assay: comedolytic test on Rhino mice; format: in vivo
RAR = assay: apoA1 "A" site reporter co-transfection in HepG-2 cells with RAR; format: cell-based
From the text: as §1

[1] = test system: ME180, a squamous cell carcinoma; assay: growth of ME180 tumor cells (cell number); format: cell-based, human
From the text: (§2) The effects on growth of these cells were monitored by evaluation of cell number, and also by evaluation of growth in semi-solid medium for the RPMI18226 cell line. […] The therapeutic index is defined as the ratio of efficacy to toxicity of a compound.

[2] = test system: RPMI18226, a multiple myeloma; assay: growth of RPMI18226 tumor cells (cell number, semi-solid medium); format: cell-based, human; conditions: cell number and growth in semi-solid medium
From the text: as §2

[3] = rats
Method: Male Sprague-Dawley rats (160-200 gram) were obtained from Harlan. Animals were fed standard laboratory diets (Harlan/Teklad) and kept in an environmentally controlled animal house with a light period lasting from 6 a.m. to 6 p.m. Animals were treated with drugs prepared as suspensions in olive oil.
Plasma was separated and stored at 4° C. for evaluation of plasma total cholesterol and high density lipoprotein cholesterol (HDL-cholesterol).
Plasma total cholesterol was measured enzymatically utilizing Boeringer Mannheim Diagnostics High Performance Cholesterol Methods with an ABBOTT VP Bichromatic Analyzer. HDL cholesterol was measured after preparation of the HDL-containing fraction by heparin-manganese precipitation of plasma. HDL-cholesterol in this fraction was estimated as mentioned earlier. All HDL separations were checked for contamination by other lipoproteins with agarose gel electrophoresis.
Serum samples were taken and analyzed by Western Blot using antisera specific to rat apoA1.

RXRβ = target: T1, RXRβ (Mus musculus, UniProt P28704); assay: co-transfection (cis-trans) assay in CV-1 cells, RXRβ; format: cell-based; conditions: CV-1, read-out: Efficacy RXRβ
T1 construct: expressed in transfected cells; host or cells: CV-1 (monkey kidney)
T1 sequence (P28704 1-520): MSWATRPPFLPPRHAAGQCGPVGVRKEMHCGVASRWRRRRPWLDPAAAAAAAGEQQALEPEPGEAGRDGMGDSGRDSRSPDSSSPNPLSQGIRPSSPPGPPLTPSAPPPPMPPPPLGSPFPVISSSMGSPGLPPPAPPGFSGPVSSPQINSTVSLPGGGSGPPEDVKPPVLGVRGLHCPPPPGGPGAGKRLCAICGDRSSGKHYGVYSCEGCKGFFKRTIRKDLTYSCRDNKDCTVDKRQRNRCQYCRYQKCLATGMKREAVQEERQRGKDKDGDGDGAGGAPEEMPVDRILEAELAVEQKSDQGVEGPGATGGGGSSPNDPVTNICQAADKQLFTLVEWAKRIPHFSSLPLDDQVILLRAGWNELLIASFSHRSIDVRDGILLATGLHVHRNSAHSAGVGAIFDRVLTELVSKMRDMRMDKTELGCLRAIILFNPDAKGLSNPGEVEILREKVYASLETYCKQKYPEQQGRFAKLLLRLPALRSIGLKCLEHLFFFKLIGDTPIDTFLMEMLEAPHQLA
From the text: The co-transfection assay provides a mechanism to evaluate the ability of a compound to modulate the transcription response initiated by an intracellular receptor. […] Berger et al., J. Steroid Biochem. Molec.
Briefly, the co-transfection assay involves the introduction of two plasmids by transient transfection into a retinoid receptor-negative mammalian cell background. The first plasmid contains a retinoid receptor cDNA and directs constitutive expression of the encoded receptor. The second plasmid contains a cDNA that encodes for a readily quantifiable protein, e.g., firefly luciferase or chloramphenicol acetyl transferase (CAT), under control of a promoter containing a retinoid acid response element, which confers retinoid dependence on the transcription of the reporter. In this co-transfection assay, all retinoid receptors respond to all-trans-retinoic acid in a similar fashion. This assay can be used to accurately measure efficacy and potency of retinoic acid and synthetic retinoids as ligands that interact with the individual retinoid receptor subtypes.
Accordingly, synthetic retinoid compounds of the current invention were evaluated for their interaction with retinoid receptor subtypes using the co-transfection assay in which CV-1 cells were co-transfected with one of the retinoid receptor subtypes, a reporter construct, and an internal control to allow normalization of the response for transfection efficiency. The following example is illustrative.
Retinoids: All-trans-retinoic acid (RA) and 13-cis-retinoic acid (13-cis-RA) were obtained from Sigma. […] Retinoids were dissolved in dimethylsulfoxide for use in the transcriptional activation assays.
Co-transfection Assay In CV-1 Cells: A monkey kidney cell line, CV-1, was used in the cis-trans assay. Cells were transfected with two plasmids. […] The cis-vector contains an easily assayable gene product, in this case the firefly luciferase, coupled to a retinoid-responsive promoter, i.e., an RARE or RXRE. Addition of retinoic acid or an appropriate synthetic retinoid results in the formation of a retinoid-RAR or -RXR complex that activates the expression of luciferase gene, causing light to be emitted from cell extracts. The level of luciferase activity is directly proportional to the effectiveness of the retinoid-receptor complex in activating gene expression. This sensitive and reproducible co-transfection approach permits the identification of retinoids that interact with the different receptor isoforms.
Cells were cultured in DMEM supplemented with 10% charcoal resin-stripped fetal bovine serum, and experiments were conducted in 96-well plates. […] Cells were transfected for 6 h and then washed to remove the precipitate. The cells were then incubated for 36 h with or without retinoid. After the transfection, all subsequent steps were performed on a Beckman Biomek Automated Workstation. […] All determinations were performed in triplicate in two independent experiments and were normalized for transfection efficiency by using β-galactosidase as the internal control. […] Efficacy values less than 5% are not statistically different than the 0% background.

[4] = test system: myeloma cell line (RPMI 8226); assay: thymidine incorporation assay in myeloma cell line RPMI 8226; format: cell-based; conditions: RPMI 8226 myeloma cells, FIG. 11
From the text: This assay examines the incorporation of radiolabeled thymidine into DNA, and by determining the ability of a compound to inhibit thymidine incorporation into DNA, provides a measure of cell proliferation.

HL60 = assay: thymidine incorporation assay in HL60 cells; format: cell-based
RXRα/PPAR = target: T2, RXRα/PPAR (UniProt P19793+P23204); assay: co-transfection of RXRα and PPAR into HepG2 cells, target reporter gene; format: cell-based; conditions: HepG2, read-out: Normalized Response (%)
T2 construct: expressed in transfected cells; host or cells: HepG2
From the text: Specifically, peroxisome proliferator-activated receptor (PPAR) is a member of the intracellular receptor super family that plays a role in the modulation of lipid homeostasis. […] These agents, called peroxisome proliferators, have been used in man as hypolipidemic agents.

T2 sequence (P23204 whole entry): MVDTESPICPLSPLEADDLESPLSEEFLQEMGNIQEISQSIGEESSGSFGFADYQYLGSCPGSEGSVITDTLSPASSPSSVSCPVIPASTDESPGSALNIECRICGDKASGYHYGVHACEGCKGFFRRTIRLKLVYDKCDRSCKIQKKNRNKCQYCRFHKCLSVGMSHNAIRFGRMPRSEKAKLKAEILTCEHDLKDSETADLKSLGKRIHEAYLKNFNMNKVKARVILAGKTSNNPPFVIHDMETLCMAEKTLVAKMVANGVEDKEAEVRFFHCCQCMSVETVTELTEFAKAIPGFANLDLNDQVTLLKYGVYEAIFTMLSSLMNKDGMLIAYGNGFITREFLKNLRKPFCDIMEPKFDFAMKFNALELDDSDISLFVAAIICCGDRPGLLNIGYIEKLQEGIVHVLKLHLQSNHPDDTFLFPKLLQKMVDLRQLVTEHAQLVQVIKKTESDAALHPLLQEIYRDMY
T2 sequence (P19793 whole entry): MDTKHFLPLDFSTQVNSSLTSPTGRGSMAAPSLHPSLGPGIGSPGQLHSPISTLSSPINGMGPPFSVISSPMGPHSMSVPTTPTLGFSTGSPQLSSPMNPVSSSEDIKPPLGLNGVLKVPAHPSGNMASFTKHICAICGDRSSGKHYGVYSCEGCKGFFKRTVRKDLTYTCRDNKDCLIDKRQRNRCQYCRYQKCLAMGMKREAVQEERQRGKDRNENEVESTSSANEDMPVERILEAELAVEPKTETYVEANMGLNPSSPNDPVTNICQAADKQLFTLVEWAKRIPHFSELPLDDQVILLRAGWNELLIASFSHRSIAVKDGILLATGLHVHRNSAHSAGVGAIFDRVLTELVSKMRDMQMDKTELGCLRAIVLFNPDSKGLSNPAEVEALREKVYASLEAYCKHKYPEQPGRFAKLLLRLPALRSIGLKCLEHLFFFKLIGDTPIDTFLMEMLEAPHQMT

Cc1cc2c(cc1C(=O)c1ccc(C(=O)O)cc1)C(C)(C)CCC2(C)C [3-methyl-TTNCB, 4-[(3,5,5,8,8-pentamethyl-5,6,7,8-tetrahydro-2-naphthyl)carbonyl]benzoic acid]
activation of apoA1 "A" site reporter with RXR (RXR): activation in the system
inhibition of utriculi diameter (Rhino mice; 0.1% solution, topical, Rhino mice, FIG. 9): approximately 50%
irritation to the skin of Rhino mice (Rhino mice; compared with 9-cis- or all-trans-retinoic acid): less irritating to the skin of Rhino mice than 9-cis- or all-trans-retinoic acid
effect on apoA1 "A" site reporter with RAR (RAR): no effect

C=C(c1ccc(C(=O)O)cc1)c1cc2c(cc1C)C(C)(C)CCC2(C)C [3-methyl-TTNEB, 4-[1-(3,5,5,8,8-pentamethyl-5,6,7,8-tetrahydro-2-naphthyl)ethenyl]benzoic acid]
cell growth [1]: inhibit cell growth in a concentration-dependent manner
cell growth [2]: inhibit cell growth in a concentration-dependent manner
total cholesterol ([3]; 4 days): an increase due to the increase of the HDL-cholesterol fraction
plasma HDL-cholesterol at the lowest dose ([3]; 4 days, 0.3 mg/kg i.p.): significant increases
circulating apoA1 levels ([3]; orally 3 mg/kg daily for four days, Western Blot of serum): significant increase in circulating apoA1 levels

CC1=C(/C=C/C(C)=C\C=C\C(C)=C\C(=O)O)C(C)(C)CCC1 [9-cis-retinoic acid, reference compound]
Emax (RXRβ): 140%

C/C(=C\c1ccc(C(=O)O)cc1)c1ccc2c(c1)C(C)(C)CCC2(C)C [TTNPB]
concentrations providing essentially no effect on cell proliferation [4]: less than 10^-11 M

CC1=C(/C=C/C(C)=C/C=C/C(C)=C/C(=O)O)C(C)(C)CCC1 [all-trans-retinoic acid, All-trans-retinoic acid]
cellular proliferation (thymidine incorporation) (HL60): inhibits thymidine incorporation

CC(C)(Oc1ccc(Cl)cc1)C(=O)O [clofibric Acid, clofibric acid]
Emax (RXRα/PPAR): 100%
